Test [1] addresses T1, PGD2 receptor (DP receptor) (Homo sapiens, UniProt Q13258).
T1 construct: twice centrifuged at 105,000×g for 20 minutes at 4 degree C. to obtain platelet membrane fraction as precipitate; from tissue; host or cells: human platelet membrane fraction from blood of a healthy adult
T1 sequence (Q13258 1-359): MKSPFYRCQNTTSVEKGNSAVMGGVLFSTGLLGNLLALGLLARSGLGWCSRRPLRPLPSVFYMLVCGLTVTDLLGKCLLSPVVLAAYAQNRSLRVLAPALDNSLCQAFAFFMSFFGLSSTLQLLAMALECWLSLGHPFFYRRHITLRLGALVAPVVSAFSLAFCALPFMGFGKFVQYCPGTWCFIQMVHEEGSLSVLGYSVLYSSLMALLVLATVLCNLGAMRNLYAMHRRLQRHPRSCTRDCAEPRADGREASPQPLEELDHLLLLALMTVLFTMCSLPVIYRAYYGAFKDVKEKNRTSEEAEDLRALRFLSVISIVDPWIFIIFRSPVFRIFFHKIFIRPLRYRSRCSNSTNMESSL
Description: PGD2 receptor (DP receptor) binding test, [3H]PGD2, human platelet membrane fraction. The following applies: 5 nM [3H]PGD2, 4 degree C., 90 minutes, read-out: Inhibition constant Ki. On the procedure:
The test was conducted in accordance with the method of TsurI et al. (J. Med. Chem., 40, 3504-3507 (1997)).
(1) Preparation of Human Platelet Membrane Fraction
A sample of blood drawn from a healthy adult using a plastic syringe was placed in a plastic test tube containing 3.8% sodium citrate, and after gently mixing by overturning centrifuged at room temperature at 180×g for 20 minutes to obtain platelet-rich plasma (PRP) as supernatant. The PRP was further centrifuged at room temperature at 800×g for 20 minutes to obtain platelet as precipitate. […]
The human platelet membrane fraction (0.1 mg), 5 nM [3H]PGD2, and each compound was added to 200 μl of binding reaction solution (50 mM Tris/HCl (pH 7.4), 1 mM EDTA, 10 mM MgCl2), and reaction was conducted at 4 degree C. for 90 minutes. After reaction, the mixture was filtered under vacuum using a glass fiber filter paper, and after rinsing several times with cold physiological sodium chloride solution, residual radio activity on the filter paper was measured. The quantity of nonspecific binding in the present experiment was calculated as the quantity of radioactivity when a similar experiment was conducted in the presence of 10 μM PGD2, and the quantity of specific binding was given as the value of quantity of total binding minus quantity of nonspecific binding. […]

A further test addresses T2, PGD2 receptor (Bos taurus, UniProt A5D7K8).
T2 construct: EBTr[NBL-4] cells derived from embryonic bovine trachea; endogenous in cells; host or cells: EBTr[NBL-4] cells (embryonic bovine trachea)
T2 sequence (A5D7K8 1-361): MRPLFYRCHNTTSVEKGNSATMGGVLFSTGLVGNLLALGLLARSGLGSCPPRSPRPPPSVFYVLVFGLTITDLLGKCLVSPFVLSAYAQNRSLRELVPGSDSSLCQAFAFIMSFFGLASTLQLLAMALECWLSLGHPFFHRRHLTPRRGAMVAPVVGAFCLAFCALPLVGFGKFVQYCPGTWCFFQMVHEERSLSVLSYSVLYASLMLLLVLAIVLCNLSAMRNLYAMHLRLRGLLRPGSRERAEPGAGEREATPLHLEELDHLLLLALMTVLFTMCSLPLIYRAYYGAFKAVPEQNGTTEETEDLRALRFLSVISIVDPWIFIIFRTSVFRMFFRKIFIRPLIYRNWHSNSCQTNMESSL
Nature of the test: Competitive inhibition activity test to PGD2 receptor, cAMP production in EBTr[NBL-4] cells. In kind it is cell-based, bovine. The following applies: 37 degree C., 15 minutes. On the procedure: EBTr[NBL-4] cells derived from embryonic bovine trachea were seeded on a micro-plate with 96 wells, at 8000 cells/well, and used for the experiment after culturing for 2 days in the presence of MEM culture medium (containing 10% calf cerum). The experiment was conducted in a MEM culture medium containing 500 μM IBMX and 10% calf serum. 100 μl of culture medium containing PGD2 and the test compound was added to initiate the reaction, and after reaction at 37 degree C. for 15 minutes, the culture medium was removed and ice-chilled PBS was added to terminate the reaction. Further, after removal of PBS, 200 μl of cytolytic agent (Lysis reagent 1) in cAMP enzymeImmunoassay system (Amersham) was added and cytolysis was brought about by shaking at room temperature for 10 minutes. The quantity of cAMP in the cytolytic agent was determined in accordance with the method described in the cAMP enzymeImmunoassay system. The inhibition activity of the test compound was calculated with the pA2 value as an indicator using the IC50 value when cAMP production quantity in the presence of 100 nM, 1 μM PGD2 was taken as 100%.
(In general: cAMP levels reflect the balance of adenylyl cyclase and phosphodiesterase activity.)

[2] abbreviates: Competitive inhibition activity IC50, PGD2 (100 nM), PGD2 (100 nM) as printed, read-out: Competitive inhibition activity IC50, PGD1 (100 nM).
Setting [3] is: PGD2 (1 μM), read-out: Competitive inhibition activity IC50, PGD2 (1 μM).

Read-outs that look alike come from different tables or passages of the source.

The Ki is the equilibrium dissociation constant of an inhibitor or competing ligand from its target. As usually defined, the IC50 is the midpoint of a concentration-inhibition curve. Regarding `O=C(O)Cc1ccccc1CC[C@@H]1[C@@H](C#C[C@@H](O)C2CCCCC2)[C@H](O)C[C@H]1Cl` [Compound 51, 9-Deoxy-9β-chloro-3,4,5, 16, 17, 18, 19,20-octanol-2,6-inter-o-phenylene-15-cyclohexyl-13,14-didehydro-PGF1α], the Ki in test [1] was found to be 2.3 nM. The figures for the IC50 at PGD2 receptor (setting [2]) and at PGD2 receptor (setting [3]) were 3420 nM and 5370 nM, respectively.
For `O=C(O)Cc1cccc(CC[C@@H]2[C@@H](C#C[C@@H](O)C3CCCCC3)[C@H](O)C[C@H]2Cl)c1` [Compound 38, 9-Deoxy-9β-chloro-3,4,5,16,17,18,19,20-octanol-2,6-inter-m-phenylene-15-cyclohexyl-13,14-didehydro-PGF1α], in that order: 0.8 nM, 730 nM and 1160 nM.

The values are drawn from patent publication US20060270740A1, “Prostaglandin derivatives” (TAISHO PHARMACEUTICAL CO., LTD. and Fumie SATO, priority 2003, published 2006).
